The source of these data is article PMC9917830, “New Piperazine Derivatives of 6-Acetyl-7-hydroxy-4-methylcoumarin as 5-HT1A Receptor Agents” (International Journal of Molecular Sciences, 2023).

Like-named read-outs stand apart in the source and are kept apart here.

For series [1], the target named is T1, 5-HT1A receptor (Rattus norvegicus, UniProt P19327).
T1 construct: Brains were rapidly removed and placed on ice; from tissue; host or cells: Sprague–Dawley rat hippocampus membranes
T1 sequence (P19327 1-422): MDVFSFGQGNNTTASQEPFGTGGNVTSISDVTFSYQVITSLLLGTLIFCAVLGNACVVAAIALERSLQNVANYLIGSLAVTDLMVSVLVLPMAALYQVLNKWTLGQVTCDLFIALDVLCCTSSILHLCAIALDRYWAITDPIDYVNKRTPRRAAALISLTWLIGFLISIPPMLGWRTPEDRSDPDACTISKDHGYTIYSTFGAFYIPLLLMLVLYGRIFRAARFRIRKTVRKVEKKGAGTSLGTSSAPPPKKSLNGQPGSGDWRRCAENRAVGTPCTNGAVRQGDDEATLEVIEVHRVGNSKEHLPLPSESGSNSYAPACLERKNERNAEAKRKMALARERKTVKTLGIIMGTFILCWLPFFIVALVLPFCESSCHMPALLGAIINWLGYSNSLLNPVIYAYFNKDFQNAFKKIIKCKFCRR
The series can be described thus: Competitive 5-HT1A binding assay with [3H]8-OH-DPAT, rat hippocampal membranes. As to conditions: 1 nM [3H]8-OH-DPAT. The method, then:
(§1) Sprague–Dawley rats were sacrificed by isoflurane overdose. Brains were rapidly removed and placed on ice. Hippocampi (for 5-HT1A assays) and frontal cortices (for 5-HT2A assays) were dissected on a Petri dish. The tissue from 10 rats was homogenized in 30 vol. homogenization buffer (50 mM Tris-HCl, […], 1 mM EDTA, 1 mM dithiothreitol) with a hand-held Teflon-glass homogenizer. The homogenate was centrifuged at 48,000× g at 4 °C for 15 min. The pellet was suspended and homogenized in homogenization buffer and incubated for 10 min at 36 °C. The centrifugation and suspension steps were repeated twice. The final pellet was homogenized in 5 vol. 50 mM Tris-HCl, pH = 7.4 buffer and stored at −80 °C for not more than 6 months.
(§2) Non-specific binding was determined with 10 μM serotonin in both assays. The final DMSO concentration in the assay was 5%. After incubation, the reaction mixture was deposited with the FilterMate-96 Harvester (Perkin Elmer, Waltham, MA, USA) onto Unifilter® GF/C plates (Perkin Elmer, Waltham, MA, USA) presoaked in 0.4% PEI for 1h. Each well was washed with 2 mL of 50 mM Tris-HCl (pH 7.4) buffer to separate bound ligands from free ones. Plates were left to dry overnight. Then, 35 µL of Microscint-20 scintillation fluid (Perkin Elmer, Waltham, MA, USA) was added to each filter well and left to equilibrate for 2 h. Filter-bound radioactivity was counted in a MicroBeta^2 LumiJet scintillation counter (Perkin Elmer, Waltham, MA, USA). Binding curves were fitted with one-site non-linear regression. Binding affinity (pKi ± SEM and Ki ± 95% confidence intervals) for each compound was calculated from […] values with the Cheng-Prusoff equation from two separate experiments.

Another series concerns the target T2, 5-HT2A receptor (Rattus norvegicus, UniProt P14842).
T2 construct: Brains were rapidly removed and placed on ice; from tissue; host or cells: Sprague–Dawley rat frontal cortex membranes
Nature of the series: Competitive 5-HT2A binding assay with [3H]ketanserin, rat frontal cortex membranes. Particulars: 1 nM [3H]ketanserin. The method, then: as §1, §2

Series [2] concerns the target T1, 5-HT1A receptor. The series can be described thus: 5-HT1A receptor activation in the [35S]GTP-γ-S assay (agonist and antagonist mode). The series is classed as biochemical. As to conditions: for Emax / EC50: agonist mode; for Emax: efficacy ± SEM; for EC50: rat hippocampal membranes; for agonist or antagonist properties at the 5-HT1A receptor: result in words; for IC50: read-out: 5-HT1A Receptor Inhibition IC50 (nM, 95% CI). The method, then:
as §1, with “The pellet was suspended and homogenized in homogenization buffer and incubated for 10 min at 36 °C.” left out
Non-specific binding was determined with 100 µM of unlabeled GTPγS. The compounds were tested in both the agonist and antagonist mode. […] The final DMSO concentration in the assay was 5%. The reaction mixture was incubated for 90 min at 30 °C on an orbital shaker set at 250 rpm. The reaction mixture was then deposited under vacuum with the FilterMate Harvester® (Perkin Elmer, Waltham, MA, USA) onto Unifilter® GF/C Plates (Perkin Elmer, Waltham, MA, USA) presoaked with wash buffer (50 mM Tris-HCl, pH = 7.4). The wells were then rapidly washed with 2 mL of wash buffer. The filter plates were dried overnight at room temperature. Once completely dry, 35 µL of MicroScint PS (Perkin Elmer, Waltham, MA, USA) scintillation fluid was added to each well. Radioactivity was counted in a MicroBeta^2 LumiJet scintillation counter (Perkin Elmer, Waltham, MA, USA). […] The curves were fitted with the three-parameter non-linear regression model.
(In general: GTPγS resists hydrolysis and so accumulates on activated G proteins.)

The mark [3] stands for this setting: 95% CI in brackets, read-out: 5-HT1A Affinity Ki (nM, 95% CI).
Where [4] appears, read: 95% CI in brackets, read-out: 5-HT2A Affinity Ki (nM, 95% CI).
[5] abbreviates: ± SEM, read-out: 5-HT2A Affinity pKi (converted).
Where [6] appears, read: 95% CI in brackets, read-out: 5-HT1A Receptor Stimulation EC50 (nM, 95% CI).
Where [7] appears, read: ± SEM, two experiments, read-out: 5-HT1A Affinity pKi (nM ± SEM) (converted).

T2 sequence (P14842 whole entry): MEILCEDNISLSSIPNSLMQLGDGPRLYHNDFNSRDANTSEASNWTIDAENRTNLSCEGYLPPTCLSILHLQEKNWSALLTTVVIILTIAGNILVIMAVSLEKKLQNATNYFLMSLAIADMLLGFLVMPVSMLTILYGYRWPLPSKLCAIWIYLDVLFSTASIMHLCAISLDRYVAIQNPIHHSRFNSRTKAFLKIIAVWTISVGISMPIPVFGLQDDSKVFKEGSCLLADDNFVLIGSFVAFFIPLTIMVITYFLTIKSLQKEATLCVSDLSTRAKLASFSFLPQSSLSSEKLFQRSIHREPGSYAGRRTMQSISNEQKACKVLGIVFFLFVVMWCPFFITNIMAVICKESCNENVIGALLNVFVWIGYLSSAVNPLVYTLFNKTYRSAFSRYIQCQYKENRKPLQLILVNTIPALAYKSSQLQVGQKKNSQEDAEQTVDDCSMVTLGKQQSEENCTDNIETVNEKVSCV

As usually defined, the Emax is the greatest response seen or fitted, relative to the assay's reference. The melting point is the temperature of the solid-liquid transition. Take `CC(=O)c1cc2c(C)cc(=O)oc2cc1OCCCCN1CCN(c2cccc(Cl)c2Cl)CC1` [Compound 9, 6-Acetyl-7-{4-[4-(2,3-dichlorophenyl)piperazin-1-yl]butoxy}-4-methylchromen-2-one]: the melting point was 111 to 112 °C. For the same compound, the Ki at 5-HT1A receptor [1] (setting [3]) turned out to be 6.3 nM. The Ki on 5-HT2A receptor (setting [4]) stood at 1290 nM. On 5-HT2A receptor (setting [5]), the Ki was 1230 nM. For the same compound, the Emax on 5-HT1A receptor [2] worked out at 133 ± 1.3%. Moreover, the EC50 at 5-HT1A receptor [2] (setting [6]) was 149 nM.
On to `CC(=O)c1cc2c(C)cc(=O)oc2cc1OCCCCN1CCN(c2cnccn2)CC1` [Compound 15, 6-Acetyl-7-{4-[4-(pyrazin-2-yl)piperazin-1-yl]butoxy}-4-methylchromen-2-one], for which the melting point lay in the range of 150 to 151 °C. For the same compound, the Ki at 5-HT1A receptor [1] (setting [3]) amounted to 25 nM. Further, the Ki on 5-HT2A receptor (setting [4]) turned out to be 6600 nM. Moreover, on 5-HT1A receptor [2], the Emax was 170 ± 1.3% and the “agonist or antagonist properties at the 5-HT1A receptor” value (from here on “agonist or antagonist properties”) was “agonistic profile”. Moreover, at 5-HT1A receptor [2] (setting [6]), the EC50 was determined as 1300 nM.
For orientation: IC50 means the concentration that inhibits the measured activity by half. `CC(=O)c1cc2c(C)cc(=O)oc2cc1OCCCCN1CCN(c2ccc([N+](=O)[O-])cc2)CC1` [Compound 12, 6-Acetyl-7-{4-[4-(4-nitrophenyl)piperazin-1-yl]butoxy}-4-methylchromen-2-one]: the melting point was 138 to 139 °C. The Ki at 5-HT1A receptor [1] (setting [3]) was 1800 nM. The Ki at 5-HT1A receptor [1] (setting [7]) is 1780 nM. Further, the Ki on 5-HT2A receptor (setting [4]) was 1500 nM. Also, at 5-HT2A receptor (setting [5]), the Ki is 1550 nM. For the same compound, the IC50 at 5-HT1A receptor [2] was 53400 nM.
The compound `CC(=O)c1cc2c(C)cc(=O)oc2cc1OCCCCN1CCN(c2ccccc2F)CC1` [Compound 6, 6-Acetyl-7-{4-[4-(2-fluorophenyl)piperazin-1-yl]butoxy}-4-methylchromen-2-one] came in with a melting point of 112 to 113 °C. For the same compound, the Ki on 5-HT1A receptor [1] (setting [3]) came out at 1.04 nM. Also, the Ki on 5-HT1A receptor [1] (setting [7]) is 1.07 nM. Moreover, on 5-HT2A receptor (setting [4]), the Ki was 1470 nM. This compound also returned an Emax on 5-HT1A receptor [2] of 139 ± 1.1%. Further, the EC50 on 5-HT1A receptor [2] (setting [6]) was 101 nM. For the same compound, on 5-HT1A receptor [2] (read-out: 5-HT1A Receptor Stimulation pEC50 (nM ± SEM) (converted)), the EC50 was 102 nM.
`CC(=O)c1cc2c(C)cc(=O)oc2cc1OCCCCN1CCOCC1` [Compound 13, 6-Acetyl-7-[4-(morpholin-4-yl)butoxy]-4-methylchromen-2-one] yielded a melting point of 115 to 116 °C. Further, the Ki on 5-HT1A receptor [1] (setting [3]) was determined as 9620 nM. Also, on 5-HT2A receptor (setting [4]), the Ki turned out to be 6390 nM. The IC50 at 5-HT1A receptor [2] is 93400 nM.
For `CC(=O)c1cc2c(C)cc(=O)oc2cc1OCCCCN1CCN(c2ccccc2Br)CC1` [Compound 3, 6-Acetyl-7-{4-[4-(2-bromophenyl)piperazin-1-yl]butoxy}-4-methylchromen-2-one], the melting point fell in the range of 121 to 122 °C. For the same compound, at 5-HT1A receptor [1] (setting [3]), the Ki was determined as 1.96 nM. Also, the Ki at 5-HT2A receptor (setting [4]) came to 1020 nM. Besides, at 5-HT1A receptor [2], the concentration for half-maximal inhibition (IC50) amounted to 5180 nM and the “agonist or antagonist properties” value is given as “antagonistic properties”.
In turn, `CC(=O)c1cc2c(C)cc(=O)oc2cc1OCCCCN1CCN(c2ccccc2C#N)CC1` [Compound 8, 6-Acetyl-7-{4-[4-(2-cyanophenyl)piperazin-1-yl]butoxy}-4-methylchromen-2-one] came in with a melting point of 117 to 118 °C. At 5-HT1A receptor [1] (setting [3]), the Ki turned out to be 9.44 nM. Further, on 5-HT2A receptor (setting [4]), the Ki was 705 nM. At 5-HT1A receptor [2], this compound returned an Emax of 124 ± 1.1%. Further, the EC50 at 5-HT1A receptor [2] (setting [6]) stood at 59 nM.
As to `CC(=O)c1cc2c(C)cc(=O)oc2cc1OCCCCN1CCN(c2cc(C)cc(C)c2)CC1` [Compound 10, 6-Acetyl-7-{4-[4-(3,5-dimethylphenyl)piperazin-1-yl]butoxy}-4-methylchromen-2-one], the melting point is 101 to 102 °C. Also, on 5-HT1A receptor [1] (setting [3]), the Ki came out at 22.4 nM. The Ki on 5-HT2A receptor (setting [5]) is 513 nM. In addition, at 5-HT1A receptor [2], the Emax was 139 ± 1.4%. Moreover, the EC50 on 5-HT1A receptor [2] (setting [6]) amounted to 475 nM.
Compound `CC(=O)c1cc2c(C)cc(=O)oc2cc1OCCCCN1CCN(c2ccc(Br)cc2)CC1` [Compound 5, 6-Acetyl-7-{4-[4-(4-bromophenyl)piperazin-1-yl]butoxy}-4-methylchromen-2-one] displayed a melting point of 145 to 146 °C. Moreover, the Ki on 5-HT1A receptor [1] (setting [3]) was 1.4 nM. On 5-HT2A receptor (setting [4]), the Ki worked out at 1350 nM. Also, at 5-HT1A receptor [2], the IC50 came to 63200 nM and the “agonist or antagonist properties” value was “antagonistic properties”.
For the compound `CC(=O)c1cc2c(C)cc(=O)oc2cc1OCCCCN1CCN(c2ccccc2Cl)CC1` [Compound 7, 6-Acetyl-7-{4-[4-(2-chlorophenyl)piperazin-1-yl]butoxy}-4-methylchromen-2-one], the melting point lay in the range of 132 to 133 °C. The Ki on 5-HT1A receptor [1] (setting [3]) turned out to be 0.57 nM. The Ki on 5-HT1A receptor [1] (setting [7]) is 0.55 nM. Moreover, the Ki at 5-HT2A receptor (setting [4]) was 2080 nM. Besides, at 5-HT1A receptor [2], the Emax was 130 ± 1.4% and the “agonist or antagonist properties” value is reported as “strongest agonist”. The EC50 at 5-HT1A receptor [2] (setting [6]) came out at 49 nM.
The compound `CC(=O)c1cc2c(C)cc(=O)oc2cc1OCCCCN1CCN(c2ccncc2)CC1` [Compound 14] came in with a melting point of 107 to 108 °C. For the same compound, the Ki on 5-HT1A receptor [1] (setting [3]) is 1660 nM. The Ki at 5-HT2A receptor (setting [4]) is 3360 nM. Further, the IC50 at 5-HT1A receptor [2] worked out at 25000 nM.
In turn, `CC(=O)c1cc2c(C)cc(=O)oc2cc1OCCCCN1CCN(c2cccc(Br)c2)CC1` [Compound 4, 6-Acetyl-7-{4-[4-(3-bromophenyl)piperazin-1-yl]butoxy}-4-methylchromen-2-one] came in with a melting point of 109 to 110 °C. Moreover, at 5-HT1A receptor [1] (setting [3]), the Ki stood at 0.78 nM. In addition, the Ki on 5-HT1A receptor [1] (setting [7]) was 0.759 nM. For the same compound, the Ki at 5-HT2A receptor (setting [4]) is 1160 nM. Further, at 5-HT1A receptor [2], the Emax turned out to be 176 ± 1.2% and the “agonist or antagonist properties” value was “agonistic profile”. The EC50 at 5-HT1A receptor [2] (setting [6]) was 113 nM.
With `COc1cccc(N2CCN(CCCCOc3cc4oc(=O)cc(C)c4cc3C(C)=O)CC2)c1` [Compound 2, 6-Acetyl-7-{4-[4-(3-methoxyphenyl)piperazin-1-yl]butoxy}-4-methylchromen-2-one], the Ki on 5-HT1A receptor [1] (setting [3]) is 12.9 nM; on 5-HT2A receptor (setting [4]), 1160 nM; on 5-HT2A receptor (setting [5]) it was 1170 nM. Moreover, the Emax at 5-HT1A receptor [2] was found to be 146 ± 1.1%. Moreover, on 5-HT1A receptor [2] (setting [6]), the EC50 is 181 nM. In addition, the “agonist or antagonist properties” value at 5-HT1A receptor [2] is on record as “agonistic activity”.
For the compound `COc1ccccc1N1CCN(CCCCOc2cc3oc(=O)cc(C)c3cc2C(C)=O)CC1` [Compound 1, 6-Acetyl-7-{4-[4-(2-methoxyphenyl)piperazin-1-yl]butoxy}-4-methylchromen-2-one], the melting point lay in the range of 126 to 127 °C. For the same compound, the Ki at 5-HT1A receptor [1] (setting [3]) was 5.75 nM. The Ki at 5-HT2A receptor (setting [4]) stood at 1420 nM. At 5-HT1A receptor [2], the IC50 was determined as 301 nM and the “agonist or antagonist properties” value was “antagonistic properties”.
